According to patent publication US20250120643A1, “INGESTIBLE AND/OR IMPLANTABLE ARTICLES FOR MONITORING ELECTRICAL SIGNALS AND RELATED METHODS” (Massachusetts Institute of Technology, priority 2023, published 2025):
Entries after “also recorded” stand apart in the source; their conditions may differ.

Assays:
gastric slow wave = test: Azithromycin motility experiment: MiGUT recording in the stomach of anesthetized swine before and after intravenous prokinetic delivery; assay type: in vivo, Yorkshire swine; settings: anesthetized pig
Method: Motivated by the capability of the MiGUT system to detect gastric slow wave activity, an experiment was designed to test if the changes or modulations in gastric motility could also be detected. The MiGUT system was again placed in the porcine stomach of an anesthetized animal and following baseline recording, azithromycin, a known prokinetic which activates motilin receptors, was intravenously delivered (1 mg/kg total dose) via ear catheter over the course of 5 minutes (FIG. 10A(i)). […] Replicates of this experiment produced similar increases in the slow wave power (FIG. 12).
All animal experiments were approved by and performed in accordance with the Committee on Animal Care at MIT. Yorkshire swine were obtained from Cummings School of Veterinary Medicine at Tufts University (Grafton, MA, USA) for in-vivo experiments. Pigs weighing approximately 60-100 kg were placed on a liquid diet for 24 hours the day before the study and were fasted overnight prior to the study. For device placement, animals were anesthetized using an intramuscular injection of midazolam 0.25 mg/kg and dexmedetomidine 0.03 mg/kg. Following sedation, animals were placed on thermal support and ophthalmic ointment was applied to both eyes. The animal was intubated and placed on isoflurane (2%) in oxygen and connected to a vital signs monitoring system. The MiGUT device was delivered orally into the stomach, using an orogastric tube and imaged using PENTAX EC-3870TLK (160 cm) to visualize the stomach with the animal in the left lateral position.
For azithromycin experiments, following ca. 1 hr of baseline recording in the anesthetized animal, 1 mg/kg animal weight of 20 mg/ml Azithromycin (Sigma-Aldrich) solution (in PBS pH adjusted with HCL, Thermofischer) was delivered via ear catheter over the course of 5 minutes. Measurements were conducted for a minimum of 45 minutes following drug delivery. Power was calculated by summing the square of the voltage measurements in a 25 minute time window. Difference in power was calculated as (Pinitial-Pfinal)/Pinitial.
Finally, to show this system can track changes in motility, Azithromycin was administered halfway during six studies. […] It was intravenously delivered at 1 mg/kg over 5 minutes through an ear catheter. […] This indicates throughout this duration of increased gastric activity (with suspected contractions), the electrodes continued to make good contact. Thus, MiGUT is shown to be able to track changes in gastric motility and maintain a reliable interface with the mucosa.

[1] = system: gastric slow wave and all other recorded signals; test: Animal euthanasia study: MiGUT recording during administration of a barbiturate cocktail; assay type: in vivo, Yorkshire swine; settings: pig, euthanization during recording; 1 ml/10 lbs
Text: In an anesthetized Yorkshire pig, the device was delivered into the stomach and the electrode is shown to unroll and conform to the gastric mucosa along the greater curvature of the stomach (FIG. 7A). The reference electrode was localized near the stomach corpus (Schematic in FIG. 8). One and a half hours of recorded data in this experiment (at 62.5 samples/s) was used to generate a heat map of electrical activity vs time and channel (FIG. 7B(i)). Initial electrical activity seen in all channels following device placement (t=0 to 500 seconds) is most likely due to mechanical stimulation as a consequence of endoscopic visualization following device deployment. Channels near the pylorus (FIG. 7B(ii), channels 0-2) measured large amplitude, prolonged waveforms with periods of ca. 500 seconds with approximately 6 total cycles. […] These signals were also observed in separate experiments using the MiGUT system in different animals (N=5, Table 1).
For non-survival procedures, the animal was sedated with intramuscular injection of Telazol (tiletamine/zolazepam) 5 mg/kg and xylazine 2 mg/kg and euthanized using Fatal Plus (sodium pentobarbital), 1 ml/10 lbs. Heart rate and respiration rate are assessed via vitals monitor to ensure that the pig has been euthanized. […]

SMILES	changes in the respiration and heart rate frequency bands (gastric slow wave; 1 mg/kg i.v. over 5 minutes through ear catheter, six studies)	amplitude of the slow wave (gastric slow wave; 1 mg/kg i.v. over 5 minutes through ear catheter, six studies, seen in five of the recording channels)	power in the EKG or respiratory frequency windows (gastric slow wave; 1 mg/kg i.v. over 5 minutes, 25 minutes after vs 25 minutes prior to dosing)	power in the slow wave frequency range (gastric slow wave; 1 mg/kg i.v. via ear catheter over 5 minutes, 25 minutes after vs 25 minutes prior to dosing, seen in 5 of the 8 recording channels)	effect on waveforms recorded by MiGUT (slow wave and all other signals) [1]
CC[C@H]1OC(=O)[C@H](C)[C@@H](O[C@H]2C[C@@](C)(OC)[C@@H](O)[C@H](C)O2)[C@H](C)[C@@H](O[C@@H]2O[C@H](C)C[C@H](N(C)C)[C@H]2O)[C@](C)(O)C[C@@H](C)CN(C)[C@H](C)[C@@H](O)[C@]1(C)O [azithromycin]	no significant changes	significant increase	no significant change in power	noticeable increase in power	
CCCC(C)C1(CC)C(=O)N=C([O-])NC1=O.[Na+] (centres unmarked) [barbiturate cocktail, sodium pentobarbital]					terminated; also recorded: cessation of all waveforms
